Values of other authors, collected in patent US20080214592A1, “METHODS OF TREATING ANXIETY DISORDERS” (Orexigen Therapeutics, Inc., priority 2005, published 2008).

Q: For `CNCCC(Oc1ccc(C(F)(F)F)cc1)c1ccccc1` (stereo not shown) [Fluoxetine, fluoxetine], which physiological half life is on record?
A: about 24 hours
